From patent publication US9150592B2, “Heterocyclic nuclear hormone receptor modulators” (AbbVie Inc., priority 2012, dated 2015) come the findings set out here.

Experiment [1] deals with T1, Glucocorticoid Receptor (GR) (Homo sapiens, UniProt P04150).
T1 construct: purchased Invitrogen P2893
T1 sequence (P04150 1-777): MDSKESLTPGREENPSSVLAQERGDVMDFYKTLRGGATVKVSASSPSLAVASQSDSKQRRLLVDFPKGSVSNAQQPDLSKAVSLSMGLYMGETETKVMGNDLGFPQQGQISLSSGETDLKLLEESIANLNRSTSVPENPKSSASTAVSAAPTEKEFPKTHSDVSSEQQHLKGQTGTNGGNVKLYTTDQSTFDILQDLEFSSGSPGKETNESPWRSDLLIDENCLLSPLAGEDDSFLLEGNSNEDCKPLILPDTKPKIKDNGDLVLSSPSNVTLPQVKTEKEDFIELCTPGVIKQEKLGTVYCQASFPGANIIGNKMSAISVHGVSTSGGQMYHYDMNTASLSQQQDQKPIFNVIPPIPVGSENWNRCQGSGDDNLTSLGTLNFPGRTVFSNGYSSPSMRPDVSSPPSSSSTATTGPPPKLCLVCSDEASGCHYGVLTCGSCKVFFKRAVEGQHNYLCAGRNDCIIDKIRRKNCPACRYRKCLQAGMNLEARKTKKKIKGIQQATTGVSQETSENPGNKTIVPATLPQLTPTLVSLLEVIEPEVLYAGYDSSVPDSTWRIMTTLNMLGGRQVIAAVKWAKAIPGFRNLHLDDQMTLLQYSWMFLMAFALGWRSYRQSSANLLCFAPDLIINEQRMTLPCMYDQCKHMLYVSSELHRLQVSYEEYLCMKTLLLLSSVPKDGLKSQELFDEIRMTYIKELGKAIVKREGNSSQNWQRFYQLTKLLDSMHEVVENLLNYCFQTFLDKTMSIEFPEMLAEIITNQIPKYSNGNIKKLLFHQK
Description: GR Fluorescence Polarization Assay (PolarScreen Glucocorticoid Receptor Competitor Assay, Red). The following applies: IC50 class ranges, read-out: GR binding. In outline: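 Competitive fluorescence-polarization assay using a red fluorescent glucocorticoid tracer with human GR in kit buffer. Compounds serially diluted 1:4 in DMSO, incubated with tracer and GR overnight at 4° C, then polarization read.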
(Polarisation of emitted light reports the rotation of a fluorescent probe.)

The subject of experiment [2] is IL-6 in A549 cells stimulated with IL-1β. Briefly: A549 Cell Assay to Measure Inflammation Markers (inhibition of IL-1β-induced IL-6). The following applies: Homo sapiens, intrinsic activity, Emax class ranges. Type of experiment: cell-based. In outline:
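Compound pre-incubated with A549 cells 1 h at 37 °C, then stimulated with IL-1β (1 ng/mL final, 0.1% DMSO). Supernatant IL-6 quantified by MSD immunoassay after a further incubation. IC50 and Emax derived.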

Where [3] appears, read: A549, A549 Cell Assay to Measure Inflammation Markers.

In general, Emax refers to the maximal effect, on the per cent scale that the assay sets. For `Cc1nn(C)c2c1C(c1ccc(Cl)cc1Cl)SC(C)(C)CN2CC(O)C(F)(F)F` (centres unmarked), in experiment [1], the IC50 was above 10000 nM. The compound also gave a maximal response (Emax) in experiment [2] (setting [3]) below 50%.
The like results for `CCn1nc(-c2ccccn2)c2c1N[C@@H](C)CS[C@H]2c1ccc(C(N)=O)cc1C` (single isomer, unassigned) [M.48, 4-(1-ethyl-7-methyl-3-(pyridin-2-yl)-4,6,7,8-tetrahydro-1H-pyrazolo[3,4-e][1,4]thiazepin-4-yl)-3-methylbenzamide] were, in that order, below 100 nM and above 50%.
`Cc1cc(Cl)ccc1[C@@H]1S[C@@H](CCO)[C@@H](C)Nc2c1c(C)nn2C` (racemic): the IC50 in experiment [1] is below 100 nM. In experiment [2] (setting [3]), this compound registered a maximal response (Emax) above 70%.
The matching figures for `CCn1nc(C2CC2)c2c1NCC(C)(C)SC2c1ccc(Cl)cc1C` (centres unmarked) [D.107]: below 100 nM and below 50%.
The like results for `Cc1cc(CCC(C)(C)O)ccc1[C@@H]1SC[C@H](C)Nc2c1c(-c1ccccn1)nn2C` (single isomer, unassigned) [M.42, 4-(4-(1,7-dimethyl-3-(pyridin-2-yl)-4,6,7,8-tetrahydro-1H-pyrazolo[3,4-e][1,4]thiazepin-4-yl)-3-methylphenyl)-2-methylbutan-2-ol] were, in that order, below 100 nM and above 60%.
Regarding `Cc1cc(Cl)ccc1[C@H]1S[C@H](CCO)CNc2c1c(-c1ccccn1)nn2C` (single isomer, unassigned) [M.11, 2-(4-(4-chloro-2-methylphenyl)-1-methyl-3-(pyridin-2-yl)-4,6,7,8-tetrahydro-1H-pyrazolo[3,4-e][1,4]thiazepin-6-yl)ethanol], the IC50 in experiment [1] lay in the range of 1000 to 10000 nM. The same compound yielded an Emax in experiment [2] (setting [3]) below 50%.
For `Cc1cc(-c2nn(C)c3c2C(c2ccc(Br)cc2C)SCCN3)on1` (centres unmarked) [D.29], the IC50 in experiment [1] was below 100 nM. Further, the Emax in experiment [2] (setting [3]) is below 50%.
The like results for `Cc1cc(Br)ccc1[C@H]1SC[C@H](C(F)(F)F)Nc2c1c(-c1ccccn1)nn2C` (racemic) were, in that order, 100 to 1000 nM and below 50%.
Turning to `Cn1nc(-c2ccccn2)c2c1NC(=O)CSC2c1ccc(Br)cc1Cl` (centres unmarked) [C.2, 4-(4-bromo-2-chloro-phenyl)-1-methyl-3-(2-pyridyl)-4,8-dihydropyrazolo[3,4-e][1,4]thiazepin-7-one], in experiment [1], the IC50 lay in the range of 100 to 1000 nM. In addition, the Emax in experiment [2] (A549 Cell Assay to Measure Inflammation Markers) is below 50%.
Consider `Cc1ccc(C2SCCNc3c2c(-c2ccccn2)nn3C)c(C)c1` (centres unmarked) [D.9], for which the IC50 in experiment [1] was below 100 nM. Besides, in experiment [2] (setting [3]), the Emax is below 50%.
Regarding `Cc1cc(Br)ccc1[C@H]1SC[C@@H](C(F)(F)F)Nc2c1c(-c1ccccn1)nn2C` (racemic), in experiment [1], the IC50 was below 100 nM. The same compound had an Emax in experiment [2] (setting [3]) below 50%.
Consider `CCn1nc(-c2ccccn2)c2c1NCCSC2c1ccc(C(=O)Nc2nnc[nH]2)cc1C` (centres unmarked) [S.5], for which the IC50 in experiment [1] is below 100 nM. The same compound returned a maximum response (Emax) in experiment [2] (setting [3]) above 70%.
On to `CCn1nc(-c2ccccn2)c2c1NCCSC2c1ccc(C(=O)Nc2cccnc2Cl)cc1C` (centres unmarked) [S.10], for which the IC50 in experiment [1] is below 100 nM. The same compound came in with an Emax in experiment [2] (setting [3]) above 70%.
Consider `Cc1cc(C#CCCO)ccc1[C@@H]1SC[C@H](C)Nc2c1c(-c1ccccn1)nn2C` (single isomer, unassigned) [M.54, 4-(4-(1,7-dimethyl-3-(pyridin-2-yl)-4,6,7,8-tetrahydro-1H-pyrazolo[3,4-e][1,4]thiazepin-4-yl)-3-methylphenyl)but-3-yn-1-ol], for which, in experiment [1], the IC50 was below 100 nM. The compound also showed an Emax in experiment [2] (setting [3]) below 50%.
For the compound `COc1ccnc(-c2nn(C)c3c2C(c2ccc(Cl)cc2C)SCCN3)c1` (centres unmarked) [D.22], the IC50 in experiment [1] was below 100 nM. For the same compound, in experiment [2] (setting [3]), the maximal response (Emax) is below 50%.
`CCn1nc(-c2ccccn2)c2c1NCCSC2c1ccc(Br)cc1C` (centres unmarked) [D.30, 4-(4-bromo-2-methyl-phenyl)-1-ethyl-3-(2-pyridyl)-4,6,7,8-tetrahydropyrazolo[3,4-e][1,4]thiazepine]: in experiment [1], the IC50 was below 100 nM. The compound further returned a maximum response (Emax) in experiment [2] (setting [3]) above 70%.
The like results for `CCn1nc(-c2ccccn2)c2c1N[C@@H](C)CS[C@H]2c1ccc(C#CCO)cc1C` (single isomer, unassigned) [M.28, 3-(4-(1-ethyl-7-methyl-3-(pyridin-2-yl)-4,6,7,8-tetrahydro-1H-pyrazolo[3,4-e][1,4]thiazepin-4-yl)-3-methylphenyl)prop-2-yn-1-ol] were, in that order, below 100 nM and above 60%.
In the case of `COC(=O)c1ccc(C)c(C2SCCNc3c2c(-c2ccccn2)nn3C)c1` (centres unmarked) [E.3, methyl 4-methyl-3-[1-methyl-3-(2-pyridyl)-4,6,7,8-tetrahydropyrazolo[3,4-e][1,4]thiazepin-4-yl]benzoate], the IC50 in experiment [1] was above 10000 nM. The compound also returned a maximal effect (Emax) in experiment [2] (setting [3]) below 50%.
The like results for `COc1cc(C2SCCNc3c2c(-c2ccccn2)nn3C)c(C)cc1Cl` (centres unmarked) [D.35] were, in that order, 1000 to 10000 nM and below 50%.
For the compound `Cc1cc(OC(F)(F)F)ccc1C1SCCNc2c1c(-c1ccccn1)nn2C` (centres unmarked) [D.12], in experiment [1], the IC50 is below 100 nM. Besides, the Emax in experiment [2] (setting [3]) is below 50%.
The matching figures for `Cc1ccc(C#N)cc1C1SCCNc2c1c(-c1ccccn1)nn2C` (centres unmarked) [G.1, 4-methyl-3-[1-methyl-3-(2-pyridyl)-4,6,7,8-tetrahydropyrazolo[3,4-e][1,4]thiazepin-4-yl]benzonitrile]: 100 to 1000 nM and below 50%.
For `COC(=O)c1ccc(C2SCCNc3c2c(-c2ccccn2)nn3C)c(Cl)c1` (centres unmarked) [E.1, methyl 3-chloro-4-[1-methyl-3-(2-pyridyl)-4,6,7,8-tetrahydropyrazolo[3,4-e][1,4]thiazepin-4-yl]benzoate], the IC50 in experiment [1] is below 100 nM. In experiment [2] (setting [3]), this compound registered a maximum response (Emax) below 50%.
The like results for `Cc1cc(CCCO)ccc1[C@@H]1SC[C@@H](C)Nc2c1c(-c1ccccn1)nn2C` (single isomer, unassigned) [M.51, 3-(4-(1,7-dimethyl-3-(pyridin-2-yl)-4,6,7,8-tetrahydro-1H-pyrazolo[3,4-e][1,4]thiazepin-4-yl)-3-methylphenyl)propan-1-ol] were, in that order, below 100 nM and below 50%.
The matching figures for `Cc1cc(S(C)(=O)=O)ccc1C1SC(C)(C)CNc2c1c(C)nn2C` (centres unmarked) [D.71]: 1000 to 10000 nM and below 50%.
The matching figures for `Cc1ncccc1NC(=O)c1ccc(C2SCCNc3c2c(-c2ccccn2)nn3C)c(Cl)c1` (centres unmarked) [F.1, 3-chloro-N-(2-methyl-3-pyridyl)-4-[1-methyl-3-(2-pyridyl)-4,6,7,8-tetrahydropyrazolo[3,4-e][1,4]thiazepin-4-yl]benzamide]: below 100 nM and above 70%.
On to `Cn1nc(-c2ccccn2)c2c1NCCSC2c1c(Cl)cccc1Cl` (centres unmarked) [D.2], for which the IC50 in experiment [1] lay in the range of 1000 to 10000 nM. In experiment [2] (setting [3]), this compound displayed an Emax below 50%.
Take `Cc1cc(Cl)ccc1C1SCCNc2c1c(-c1ccccn1)nn2C(C)C` (centres unmarked) [D.105]: the IC50 in experiment [1] is below 100 nM. The Emax in experiment [2] (setting [3]) is above 60%.
For `Cc1cc(C(=O)Nc2cccnc2C)ccc1[C@@H]1SC[C@@H](C)Nc2c1c(-c1ccncn1)nn2C` (single isomer, unassigned) [M.57, 4-(1,7-dimethyl-3-(pyrimidin-4-yl)-4,6,7,8-tetrahydro-1H-pyrazolo[3,4-e][1,4]thiazepin-4-yl)-3-methyl-N-(2-methylpyridin-3-yl)benzamide], the IC50 in experiment [1] is below 100 nM. For the same compound, the maximum response (Emax) in experiment [2] (setting [3]) is above 70%.
The like results for `Cc1cc(C(=O)Nc2cccnc2C)ccc1C1SCCNc2c1c(-c1ccccn1)nn2C` (centres unmarked) were, in that order, below 100 nM and above 70%.
As for `Cc1cc(OCC#N)ccc1[C@@H]1SC[C@@H](C)Nc2c1c(-c1ccccn1)nn2C` (single isomer, unassigned) [M.23, 2-(4-(1,7-dimethyl-3-(pyridin-2-yl)-4,6,7,8-tetrahydro-1H-pyrazolo[3,4-e][1,4]thiazepin-4-yl)-3-methylphenoxy)acetonitrile], the IC50 in experiment [1] was below 100 nM. The compound also returned an Emax in experiment [2] (setting [3]) above 50%.
Regarding `Cc1cc(Br)ccc1[C@@H]1SC[C@@H](CO)Nc2c1c(-c1ccccn1)nn2C` (racemic) [K.10, rac-((4R,7S)-4-(4-bromo-2-methylphenyl)-1-methyl-3-(pyridin-2-yl)-4,6,7,8-tetrahydro-1H-pyrazolo[3,4-e][1,4]thiazepin-7-yl)methanol], the IC50 in experiment [1] was below 100 nM. This compound also registered a maximal response (Emax) in experiment [2] (setting [3]) above 60%.
`Cn1nc(-c2ccccn2)c2c1NCCSC2c1ccc(C(N)=O)cc1Cl` (centres unmarked) [I.1, 3-chloro-4-[1-methyl-3-(2-pyridyl)-4,6,7,8-tetrahydropyrazolo[3,4-e][1,4]thiazepin-4-yl]benzamide]: the IC50 in experiment [1] is 100 to 1000 nM. Further, the Emax in experiment [2] (setting [3]) is below 50%.
In the case of `Cc1cc(Cl)ccc1[C@@H]1SC(C)(C)CNc2c1c(C1CC1)nn2C`, the IC50 in experiment [1] lay in the range of 100 to 1000 nM. The same compound returned a maximal response (Emax) in experiment [2] (setting [3]) below 50%.
The matching figures for `Cn1nc(-c2ccccn2)c2c1NCC(C)(C)SC2c1ccc(Cl)cc1Cl` (centres unmarked) [D.32]: below 100 nM and below 50%.
